Experimental data published in PubChem BioAssay (NCI).
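Tested at 5 concentrations; 48 h exposure; 96-well plates; endpoints linearly interpolated, else capped at highest concentration. At the GI50, growth is halved. TGI denotes the concentration required for complete inhibition of growth.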

Columns and labels:
Test in all cases: inhibition of tumour cell growth, NCI panel, 48 h
MDA-MB-231 breast = tested on: MDA-MB-231 breast
K-562 leukemia = tested on: K-562 leukemia
RXF 393 renal = tested on: RXF 393 renal
ACHN renal = tested on: ACHN renal
HCT-116 colon = tested on: HCT-116 colon
DU-145 prostate = tested on: DU-145 prostate
HOP-62 NSCLC = tested on: HOP-62 NSCLC
PC-3 prostate = tested on: PC-3 prostate
UACC-257 melanoma = tested on: UACC-257 melanoma
SNB-19 CNS = tested on: SNB-19 CNS
MOLT-4 leukemia = tested on: MOLT-4 leukemia
OVCAR-4 ovarian = tested on: OVCAR-4 ovarian
HCC-2998 colon = tested on: HCC-2998 colon
NCI-H226 lung = tested on: NCI-H226 lung
MCF7 breast = tested on: MCF7 breast
SF-295 CNS = tested on: SF-295 CNS
TK-10 renal = tested on: TK-10 renal
NCI-H460 lung = tested on: NCI-H460 lung
BT-549 breast = tested on: BT-549 breast
SN12C renal = tested on: SN12C renal
SK-MEL-5 melanoma = tested on: SK-MEL-5 melanoma
T-47D breast = tested on: T-47D breast
EKVX NSCLC = tested on: EKVX NSCLC
OVCAR-3 ovarian = tested on: OVCAR-3 ovarian
KM12 colon = tested on: KM12 colon
NCI-H522 lung = tested on: NCI-H522 lung
NCI-H23 lung = tested on: NCI-H23 lung
UACC-62 melanoma = tested on: UACC-62 melanoma
OVCAR-5 ovarian = tested on: OVCAR-5 ovarian
NCI/ADR-RES ovarian = tested on: NCI/ADR-RES ovarian
SF-539 CNS = tested on: SF-539 CNS
HT29 colon = tested on: HT29 colon
OVCAR-8 ovarian = tested on: OVCAR-8 ovarian
CCRF-CEM leukemia = tested on: CCRF-CEM leukemia
MDA-MB-435 = tested on: MDA-MB-435
SK-OV-3 ovarian = tested on: SK-OV-3 ovarian
IGROV1 ovarian = tested on: IGROV1 ovarian
786-0 renal = tested on: 786-0 renal
SF-268 CNS = tested on: SF-268 CNS
SK-MEL-2 melanoma = tested on: SK-MEL-2 melanoma
COLO 205 colon = tested on: COLO 205 colon
SW-620 colon = tested on: SW-620 colon
A549 NSCLC = tested on: A549 NSCLC
U251 CNS = tested on: U251 CNS
RPMI-8226 leukemia = tested on: RPMI-8226 leukemia
LOX IMVI melanoma = tested on: LOX IMVI melanoma
SNB-75 CNS = tested on: SNB-75 CNS
HOP-92 NSCLC = tested on: HOP-92 NSCLC
CAKI-1 renal = tested on: CAKI-1 renal
MALME-3M melanoma = tested on: MALME-3M melanoma
SK-MEL-28 melanoma = tested on: SK-MEL-28 melanoma
HCT-15 colon = tested on: HCT-15 colon
HL-60(TB) leukemia = tested on: HL-60(TB) leukemia
HS 578T breast = tested on: HS 578T breast
SR leukemia = tested on: SR leukemia
M14 melanoma = tested on: M14 melanoma
UO-31 renal = tested on: UO-31 renal

## CCNCc1c(-c2cccc(OC(F)(F)F)c2)[nH]c2ccc(N3CCCC3)cc2c1=O
MDA-MB-231 breast
  GI50: 2.69 µM
  TGI: 9.28 µM
K-562 leukemia
  GI50: 3.4 µM
  TGI: > 100 µM
RXF 393 renal
  GI50: 2.39 µM
  TGI: 7.61 µM
ACHN renal
  GI50: 6.73 µM
  TGI: > 100 µM
HCT-116 colon
  GI50: 3.46 µM
  TGI: 35.4 µM
DU-145 prostate
  GI50: 3.8 µM
  TGI: > 100 µM
HOP-62 NSCLC
  GI50: 5.63 µM
  TGI: 73.8 µM
PC-3 prostate
  GI50: 3.87 µM
  TGI: > 100 µM
UACC-257 melanoma
  GI50: 2.35 µM
  TGI: 6.08 µM
SNB-19 CNS
  GI50: 4.03 µM
  TGI: > 100 µM
MOLT-4 leukemia
  GI50: 3.88 µM
  TGI: 37.3 µM
OVCAR-4 ovarian
  GI50: 7.77 µM
  TGI: > 100 µM
HCC-2998 colon
  GI50: 1.88 µM
  TGI: 3.58 µM
NCI-H226 lung
  GI50: 9.29 µM
  TGI: > 100 µM
MCF7 breast
  GI50: 2.57 µM
  TGI: 11.2 µM
SF-295 CNS
  GI50: 1.97 µM
  TGI: 4.06 µM
TK-10 renal
  GI50: 24.7 µM
  TGI: > 100 µM
NCI-H460 lung
  GI50: 3.72 µM
  TGI: 16.2 µM
BT-549 breast
  GI50: 4.84 µM
  TGI: 44.6 µM
SN12C renal
  GI50: 4.12 µM
  TGI: 46.4 µM
SK-MEL-5 melanoma
  GI50: 2.09 µM
  TGI: 4.42 µM
T-47D breast
  GI50: 4.78 µM
  TGI: 59.3 µM
EKVX NSCLC
  GI50: 12.3 µM
  TGI: > 100 µM
OVCAR-3 ovarian
  GI50: 3.45 µM
  TGI: 20.3 µM
KM12 colon
  GI50: 3.54 µM
  TGI: 20.7 µM
NCI-H522 lung
  GI50: 3.98 µM
  TGI: 23.1 µM
NCI-H23 lung
  GI50: 3.15 µM
  TGI: 10.7 µM
UACC-62 melanoma
  GI50: 3.47 µM
  TGI: 14.3 µM
OVCAR-5 ovarian
  GI50: 3.81 µM
  TGI: 43.5 µM
NCI/ADR-RES ovarian
  GI50: 2.48 µM
  TGI: 7 µM
SF-539 CNS
  GI50: 2.24 µM
  TGI: 5.85 µM
HT29 colon
  GI50: 3.53 µM
  TGI: > 100 µM
OVCAR-8 ovarian
  GI50: 5.22 µM
  TGI: > 100 µM
CCRF-CEM leukemia
  GI50: 3.52 µM
  TGI: > 100 µM
MDA-MB-435
  GI50: 1.95 µM
  TGI: 4.32 µM
SK-OV-3 ovarian
  GI50: 7.19 µM
  TGI: > 100 µM
IGROV1 ovarian
  GI50: 3.54 µM
  TGI: > 100 µM
786-0 renal
  GI50: 3.84 µM
  TGI: 20.6 µM
SF-268 CNS
  GI50: 6.44 µM
  TGI: 69.2 µM
SK-MEL-2 melanoma
  GI50: 3.73 µM
  TGI: 17.2 µM
COLO 205 colon
  GI50: 2.36 µM
  TGI: 5.74 µM
SW-620 colon
  GI50: 3.17 µM
  TGI: 13.7 µM
A549 NSCLC
  GI50: 5.81 µM
  TGI: > 100 µM
U251 CNS
  GI50: 3.23 µM
  TGI: 14.8 µM
RPMI-8226 leukemia
  GI50: 2.44 µM
  TGI: 6.85 µM
LOX IMVI melanoma
  GI50: 3.31 µM
  TGI: 12.5 µM
SNB-75 CNS
  GI50: 1.42 µM
  TGI: 8.65 µM
HOP-92 NSCLC
  GI50: 4.19 µM
  TGI: 38.4 µM
CAKI-1 renal
  GI50: 3.54 µM
  TGI: 17.6 µM
MALME-3M melanoma
  GI50: 1.99 µM
  TGI: 4.41 µM
SK-MEL-28 melanoma
  GI50: 2.25 µM
  TGI: 5.51 µM
HCT-15 colon
  GI50: 3.47 µM
  TGI: 15.9 µM
HL-60(TB) leukemia
  GI50: 2.86 µM
  TGI: 9.69 µM
HS 578T breast
  GI50: 1.94 µM
  TGI: 6.48 µM
SR leukemia
  GI50: 2.71 µM
  TGI: 12.4 µM
M14 melanoma
  GI50: 1.95 µM
  TGI: 4.28 µM
UO-31 renal
  GI50: 3.72 µM
  TGI: > 100 µM
